This is an account of results in article PMC13128453, “Complexoform-restricted covalent TRMT112 ligands that allosterically agonize METTL5” (Nature Chemical Biology, 2025).

In assay [1] the target is T1, TRMT112 (Homo sapiens, UniProt Q9NRN9+Q9UI30). Briefly: intact MS kobs/[I] on purified complex; competitive gel-ABPP in HCT116 cells (IC50). The format is cell-based. On the set-up: TRMT112-FLAG:HA-METTL5 in HCT116 cells (IC50); purified TRMT112:His-METTL5 (intact MS); with METTL5.
The target in the next assay is T2, REEP5 (Homo sapiens, UniProt Q00765).
T2 construct: endogenous protein in Ramos cells
Briefly: cysteine-directed and competitive protein-directed ABPP in cells. The format is cell-based. As to conditions: read-out: Competition (%).

The target of the next assay is T3, UVRAG (Homo sapiens, UniProt Q9P2Y5).
T3 construct: endogenous protein in Ramos cells
T3 sequence (Q9P2Y5 1-699): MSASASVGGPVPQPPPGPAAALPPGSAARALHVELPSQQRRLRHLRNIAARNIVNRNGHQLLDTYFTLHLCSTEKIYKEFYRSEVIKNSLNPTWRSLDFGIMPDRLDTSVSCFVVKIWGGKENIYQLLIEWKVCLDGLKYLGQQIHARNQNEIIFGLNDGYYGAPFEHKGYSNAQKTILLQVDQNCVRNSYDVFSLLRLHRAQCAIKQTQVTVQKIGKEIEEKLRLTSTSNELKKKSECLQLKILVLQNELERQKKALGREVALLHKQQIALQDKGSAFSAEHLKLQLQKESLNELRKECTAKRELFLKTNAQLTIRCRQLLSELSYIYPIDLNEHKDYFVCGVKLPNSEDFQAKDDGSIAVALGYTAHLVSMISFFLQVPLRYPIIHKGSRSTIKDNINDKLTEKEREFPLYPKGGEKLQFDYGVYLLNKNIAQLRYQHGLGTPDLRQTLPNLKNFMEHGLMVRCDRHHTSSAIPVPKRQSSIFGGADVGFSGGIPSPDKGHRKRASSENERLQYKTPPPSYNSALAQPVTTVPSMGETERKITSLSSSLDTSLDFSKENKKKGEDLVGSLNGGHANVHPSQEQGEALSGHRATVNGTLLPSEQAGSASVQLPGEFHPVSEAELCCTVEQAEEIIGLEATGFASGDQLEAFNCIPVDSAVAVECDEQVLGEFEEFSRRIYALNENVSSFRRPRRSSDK
Described as above. The format is cell-based. Particulars: read-out: Competition (%).

Assay [2] concerns the target T4, RNF14 (Homo sapiens, UniProt Q9UBS8).
T4 sequence (Q9UBS8 1-474): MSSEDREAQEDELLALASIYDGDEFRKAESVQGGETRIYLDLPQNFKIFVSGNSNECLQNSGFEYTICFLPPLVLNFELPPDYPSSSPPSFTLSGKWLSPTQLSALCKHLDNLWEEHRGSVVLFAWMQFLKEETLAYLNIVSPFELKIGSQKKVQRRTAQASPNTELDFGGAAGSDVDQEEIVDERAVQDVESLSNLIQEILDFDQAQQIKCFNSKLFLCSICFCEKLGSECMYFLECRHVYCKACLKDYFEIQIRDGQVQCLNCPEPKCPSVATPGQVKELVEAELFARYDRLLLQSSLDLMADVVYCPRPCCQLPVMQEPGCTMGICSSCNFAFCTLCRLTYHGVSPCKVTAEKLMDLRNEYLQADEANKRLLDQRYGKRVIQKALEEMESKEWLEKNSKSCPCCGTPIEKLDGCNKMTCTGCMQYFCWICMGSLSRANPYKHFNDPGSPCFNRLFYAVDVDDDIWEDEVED
Briefly: cysteine-directed ABPP (Glu-C) and competitive protein-directed ABPP in cells. The format is cell-based. Also on record: endogenous RNF14 in Ramos cells; recombinant RNF14-FLAG in HEK293T cells. As to conditions: read-out: Competition (%).

For assay [3], the target named is T1, TRMT112. Kind of assay: intact MS kobs/[I] on purified complex; gel-ABPP and protein-directed ABPP in cells. It is filed as binding. Also on record: purified WT-TRMT112:His-METTL5 (intact MS); TRMT112-FLAG in HCT116 cells coexpressing HA-METTL5; with METTL5.
Assay [4] addresses T4, RNF14. Briefly: gel-ABPP and protein-directed ABPP in cells. Also on record: RNF14-FLAG expressed in HEK293T cells. It is filed as cell-based.
For assay [5], the target named is T1, TRMT112. Kind of assay: […] A cocrystal structure; intact MS (kobs/[I][…] s-1); competitive gel-ABPP on purified complex. The format is binding. On the set-up: full-length, tag-free TRMT112:METTL5 complex (crystal); TRMT112:His-METTL5 (IC50); with METTL5.
In assay [6] the target is T5, METTL5 (tag-free, of the tag-free TRMT112:METTL5 complex) (human, UniProt Q9NRN9 1-209).
T5 construct: METTL5, human, full-length gene codon-optimized for E. coli; same construct as His–METTL5, the His tag removed with TEV protease; By the printed primer a Ser would remain before the first Met after TEV cleavage; also called WT-METTL5; source: E. coli BL21 (DE3), coexpressed with TRMT112, purified (Ni-NTA, TEV cleavage, Ni-NTA, anion exchange, SEC); not shown: His tag, N-terminal, cleaved
Briefly: crystal structure; tag-free TRMT112:METTL5 complex modified with FWG-33B in the presence of SAM; crystals in 21% PEG3350, 0.36 M ammonium sulfate, 0.1 M Bis–Tris pH 5.5, 4 °C; 1.3 Å. As to conditions: both partners purified.

T1 sequence (Q9NRN9 whole entry, one chain of several): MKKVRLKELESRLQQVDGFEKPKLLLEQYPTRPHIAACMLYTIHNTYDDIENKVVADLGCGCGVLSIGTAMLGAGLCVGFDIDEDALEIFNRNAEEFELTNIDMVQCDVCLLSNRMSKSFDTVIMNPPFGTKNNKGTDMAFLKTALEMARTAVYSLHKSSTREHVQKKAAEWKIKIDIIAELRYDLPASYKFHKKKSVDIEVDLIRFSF
T5 sequence (Q9NRN9 whole entry, one chain of several): as above
T2 sequence (Q00765 whole entry): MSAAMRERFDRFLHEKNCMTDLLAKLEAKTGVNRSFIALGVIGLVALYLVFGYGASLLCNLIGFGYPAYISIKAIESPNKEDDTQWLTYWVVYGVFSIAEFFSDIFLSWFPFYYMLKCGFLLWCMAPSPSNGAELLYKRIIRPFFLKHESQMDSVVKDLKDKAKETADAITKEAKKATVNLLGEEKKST

On to `C=CC(=O)N1C[C@@H]2[C@H](C1)[C@@H](c1cccc(OC)c1)C[C@H]2Oc1ccc(NC(C)=O)cc1` [compound 10, FWG-1B], for which the IC50 on TRMT112 [1] came out at 12 µM. Further, the inhibition at 50 µM on REEP5 is above 60%.

Take `C=CC(=O)N1C[C@@H]2[C@H](C1)[C@H](Oc1ccc(NC(C)=O)cc1)C[C@H]2c1cccc(OC)c1` [compound 11, FWG-2A]: the inhibition at 50 µM at UVRAG was above 80%.

`C=CC(=O)N1C[C@@H]2[C@H](C1)[C@@H](c1cccc(OC)c1)C[C@@H]2Oc1ccc(NC(C)=O)cc1` [compound 12, FWG-2B]: at RNF14 [2], the inhibition at 50 µM is above 80%.

Take `C#CCCC(=O)Nc1ccc(O[C@@H]2C[C@H](c3cccc(OC)c3)[C@H]3CN(C(=O)C=C)C[C@H]32)cc1` [compound 14, FWG-3B]: the “intact MS kobs/[I] on purified complex; gel-ABPP and protein-directed ABPP in ce” value on TRMT112 [3] is “FWG-3B showed enhanced reactivity with TRMT112 exclusively in cells coexpressing the RNA MT METTL5”.

As for `C#CCCC(=O)Nc1ccc(O[C@H]2C[C@H](c3cccc(OC)c3)[C@H]3CN(C(=O)C=C)C[C@H]32)cc1` [compound 16, FWG-4B], the “gel-ABPP and protein-directed ABPP in cells” value on RNF14 [4] was “engagement of recombinant WT-RNF14-FLAG and C68A-RNF14-FLAG, but not C212A-RNF14-FLAG by FWG-4B”.

As to `C=CC(=O)N1C[C@@H]2[C@H](C1)[C@@H](c1cccc(Cl)c1)C[C@H]2Oc1ccc(NC(C)=O)cc1` [compound 22, FWG-33B], the IC50 on TRMT112 [5] worked out at 0.47 µM.

B1: TRMT112 modified by FWG-33B at C100 (of the FWG-33B-liganded tag-free TRMT112:METTL5 complex) (natural protein, human, UniProt Q9UI30 1-125, looked up)
chain: MKLLTHNLLSSHVRGVGSRGFPLRLQATEVRICPVEFNPNFVARMIPKVEWSAFLEAADNLRLIQVPKGPVEGYEENEEFLRTMHHLLLEVEVIEGTLQCPESGRMFPISRGIPNMLLSEEETES
modifications: covalent adduct between the acrylamide of FWG-33B and C100
notes: TRMT112, human, full-length gene codon-optimized for E. coli, in pACYCDuet-1; also called FWG-33B-modified TRMT112; source: E. coli BL21 (DE3), coexpressed with METTL5, purified as tag-free complex, then treated with 100 μM FWG-33B
B1: the binding result in assay [6] is recorded as “binds”.
